Data from patent publication US5354676A, “Recombinant modified thermostable NAD-dependent dehydrogenases and process for their production” (The University of Bristol, priority 1989, dated 1994).

Experiments:
[1] = biological target: T1, Bacillus stearothermophilus L-lactate dehydrogenase variant GG (235-6 AA→GG) (Geobacillus stearothermophilus, UniProt P00344, A222G/A223G); conditions: No FBP, pH 6
Description: (§1) Steady-state reaction rates were determined by following the change in A340 due to the consumption of NADH. […] The buffer for all experiments was 100rmM triethanolamine-HC1/NaOH,pH 6.

[2] = biological target: T2, Bacillus stearothermophilus L-lactate dehydrogenase variant MVS/GG (102-5 QKP→MVS and 235-6 AA→GG) (Geobacillus stearothermophilus, UniProt P00344, A222G/A223G/K87V/P88S/Q86M); experiment: biochemical
T2 construct: made in house; host or cells: E. coli TG2, vector pKK223-3
Description: as §1

[3] = biological target: T1, Bacillus stearothermophilus L-lactate dehydrogenase variant GG (235-6 AA→GG); experiment: biochemical; conditions: pH 6, read-out: stimulation in kcat/Km by FBP
Description: as §1

[4] = biological target: T3, Bacillus stearothermophilus NAD-dependent L-lactate dehydrogenase, wild type (WT) (Geobacillus stearothermophilus, UniProt P00344); experiment: biochemical; conditions: pH 6, read-out: stimulation in kcat/Km by FBP
T3 construct: made in house; host or cells: E. coli
Description: as §1

[5] = biological target: T4, Bacillus stearothermophilus L-lactate dehydrogenase variant MVS (102-5 QKP→MVS) (Geobacillus stearothermophilus, UniProt P00344, K87V/P88S/Q86M); experiment: biochemical; conditions: pH 6, read-out: stimulation in kcat/Km by FBP
T4 construct: made in house; host or cells: E. coli TG2, vector pKK223-3
T4 sequence (P00344 whole entry Q86M/K87V/P88S): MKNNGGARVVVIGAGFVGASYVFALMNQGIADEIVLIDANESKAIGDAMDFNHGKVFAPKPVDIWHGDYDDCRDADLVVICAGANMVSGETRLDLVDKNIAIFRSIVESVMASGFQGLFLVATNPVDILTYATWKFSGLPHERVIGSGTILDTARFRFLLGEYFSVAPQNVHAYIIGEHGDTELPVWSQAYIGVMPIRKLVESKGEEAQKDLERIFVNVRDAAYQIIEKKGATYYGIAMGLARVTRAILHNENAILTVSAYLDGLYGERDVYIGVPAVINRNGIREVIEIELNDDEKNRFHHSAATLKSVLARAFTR
Description: as §1

T1 sequence (P00344 whole entry A222G/A223G, the tested form may be a part): as the sequence (P00344 whole entry Q86M/K87V/P88S) above, with M86Q, V87K, S88P, A222G, A223G counted along it
T2 sequence (P00344 whole entry Q86M/K87V/P88S/A222G/A223G, the tested form may be a part): as the sequence (P00344 whole entry Q86M/K87V/P88S) above, with A222G, A223G counted along it
T3 sequence (P00344 whole entry): as the sequence (P00344 whole entry Q86M/K87V/P88S) above, with M86Q, V87K, S88P counted along it

Row | Structure (SMILES) | Km [1] [mM] | Km ([2]; MVS/GG, No FBP, pH 6) [mM] | fold induction at 5000 µM [3] | fold induction at 5000 µM ([2]; pH 6, read-out: stimulation in kcat/Km by FBP) | fold induction at 5000 µM [4] | fold induction at 5000 µM [5]
1 | CC(=O)C(=O)O [Pyruvate] | > 50 | > 50 |  |  |  | 
2 | O=C(COP(=O)(O)O)[C@@H](O)[C@H](O)[C@H](O)COP(=O)(O)O [FBP, fructose-1,6-bisphosphate] |  |  | 60 | 16 | 50 | 100
